In patent US9408393B2, “Bismuth-thiols as antiseptics for agricultural, industrial and other uses” (Microbion Corporation, priority 2010, dated 2016):
Read-outs that look alike come from different tables or passages of the source.

Assays:
[1] = system: P. aeruginosa; test: Checkerboard broth microdilution MIC and FICI; assay type: cell-based, Pseudomonas aeruginosa; settings: for MIC (μg/mL) Alone / MIC: compound alone; for MIC: Pseudomonas aeruginosa
Method: (§1) The effects of combinations of microparticulate Bis-EDT and four Bis-EDT analogs prepared as described above, and other agents against representative strains of several Gram-negative pathogenic bacteria were tested. A modification of a common laboratory method was used to determine synergism (FICI≦0.5), enhancement (0.5<FICI≦1.0), antagonism (FICI>4.0) and indifference (1.0<FICI≦4.0) used fractional inhibitory concentrations (FICs) and FIC indices (FICI) (Eliopoulos G and R Moellering. 1991. Antimicrobial combinations. In Antibiotics in Laboratory Medicine, Third Edition, edited by V Lorian. Williams and Wilkins, Baltimore, Md., pp. 432-492; Odds, 2003 J. Antimicrob. Chemother. 52(1):1). The checkerboard technique was used to determine FIC indices and was employed in this study.
(§2) Stock solutions of all test articles were prepared at 40× the final target concentration in the appropriate solvent. […] The final drug concentrations in the FIC assay plates were set to bracket the MIC value of each agent for each test organism, unless the strain was totally resistant to the test agent. […] The test organisms were originally received from clinical sources, or from the American Type Culture Collection. Upon receipt, the isolates were streaked onto Tryptic Soy Agar II (TSA). Colonies were harvested from these plates and a cell suspension was prepared in an appropriate broth growth medium containing cryoprotectant. Aliquots were then frozen at −80° C. The frozen seeds of the organisms to be tested in a given assay were thawed, streaked for isolation onto TSA plates, and incubated at 35° C. All organisms were tested in Mueller Hinton II Broth (Becton Dickinson, Lot No. 9044411). The broth was prepared at 1.05× normal weight/volume to offset the 5% volume of the drugs in the final test plates.
(§3) Minimal Inhibitory Concentration (MIC) values were previously determined using the broth microdilution method for aerobic bacteria (Clinical and Laboratory Standards Institute (CLSI). Methods for Dilution Antimicrobial Susceptibility Tests for Bacteria That Grow Aerobically; Approved Standard—Eighth Edition. CLSI document M07-A8 [ISBN 1-56238-689-1]. Clinical and Laboratory Standards Institute, 940 West Valley Road, Suite 1400, Wayne, Pa. 19087-1898 USA, 2009.).
(§4) FIC values were determined using a broth microdilution method previously described (Sweeney et al., 2003 Antimicrob. Agents Chemother. 47(6):1902-1906). To prepare the test plates, automated liquid handlers (Multidrop 384, Labsystems, Helsinki, Finland; Biomek 2000 and Multimek 96, Beckman Coulter, Fullerton Calif.) were used to conduct serial dilutions and liquid transfers.
(§5) The appropriate wells of standard 96-well microdilution plates (Falcon 3918) were filled with 150 μL of the appropriate solvent in columns 2-12 using the Multidrop 384. Three hundred microliters of each secondary test drug was added to each well in Column 1 of the plates. These plates were used to prepare the drug “mother plates” which provided the serial drug dilutions for the drug combination plates. The Biomek 2000 was used to transfer 150 μL of each secondary drug solution (40×) from the wells in Column 1 of the mother plate and to make eleven 2-fold serial dilutions. Mother plates of Bis-EDT (and analogs) were serial diluted top to bottom by hand, using a multichannel pipette. Two mother plates, one for each secondary drug and one for Bis-EDT (or analogs), were combined to form a “checkerboard” pattern by transfer of equal volumes (using a multi-channel pipette) to the drug combination plate. Row H and Column 12 each contained serial dilutions of one of the agents alone for determination of the MIC.
(§6) The “daughter plates” were loaded with 180 μL of test medium using the Multidrop 384. Then, the Multimek 96 was used to transfer 10 μL of drug solution from each well of the drug combination mother plate to each corresponding well of the daughter plate in a single step.

[2] = system: Gram-negative pathogenic bacteria; test: Checkerboard broth microdilution MIC and FICI; assay type: cell-based; settings: for MIC (μg/mL) Alone / MIC: compound alone; for FICI, Fractional Inhibitory Concentration Index: in combination with Cefotaxime; for MIC: Klebsiella pneumoniae
Method: as §1, §2, §3, §4, §5, §6

[3] = system: S. aureus; test: Broth dilution MIC/MBC, BT-antibiotic combinations; assay type: cell-based, Staphylococcus aureus
Method: Materials & Methods. Susceptibility studies were performed by broth dilution in 96-well tissue culture plates (Nalge Nunc International, Denmark) in accordance with NCCLS protocols (National Committee for Clinical Laboratory Standards. (1997). Methods for Dilution Antimicrobial Susceptibility Tests for Bacteria that Grow Aerobically: Approved Standard M7-A2 and Informational Supplement M100-S10. NCCLS, Wayne, Pa., USA).
Briefly, overnight bacterial cultures were used to prepare 0.5 McFarland standard suspensions, which were further diluted 1:50 (˜2×10^6 cfu/mL) in cation-adjusted Mueller-Hinton broth medium (BBL, Cockeysville, Md., USA). BTs (prepared as described above) and antibiotics were added at incremental concentrations, keeping the final volume constant at 0.2 mL. Cultures were incubated for 24 h at 37° C. and turbidity was assessed by absorption at 630 nm using an ELISA plate reader (Biotek Instruments, Winooski, Vt., USA) according to the manufacturer's recommendations. […] Viable bacterial counts (cfu/mL) were determined by standard plating on nutrient agar.
The checkerboard method was used to assess the activity of antimicrobial combinations. The fractional inhibitory concentration index (FICI) and the fractional bactericidal concentration index (FBCI) were calculated, according to Eliopoulos et al. (Eliopoulos and Moellering, (1996) Antimicrobial combinations. In Antibiotics in Laboratory Medicine (Lorian, V., Ed.), pp. 330-96, Williams and Wilkins, Baltimore, Md., USA). Synergy was defined as an FICI or FBCI index of […], no interaction at >0.5-4 and antagonism at >4 (Odds, F C (2003) Synergy, antagonism, and what the chequerboard puts between them. Journal of Antimicrobial Chemotherapy 52:1). Synergy was also defined conventionally as ≧4-fold decrease in antibiotic concentration.

[4] = P. aeruginosa 103, in combination with Cefepime
[5] = P. aeruginosa 103, in combination with Cefotaxime
[6] = P. aeruginosa 1381, in combination with Cefepime
[7] = P. aeruginosa 1384, in combination with Cefepime
[8] = P. aeruginosa 1474, in combination with Cefepime
[9] = P. aeruginosa 1479, in combination with Cefepime
[10] = P. aeruginosa 2566, in combination with Cefepime
[11] = P. aeruginosa 2568, in combination with Cefepime
[12] = MRSA S2446-3, BE = 0.2 μg/ml BisEDT
[13] = S. aureus ATCC 25923, BE = 0.2 μg/ml BisEDT

| SMILES | FICI, Fractional Inhibitory Concentration Index [1, 4] | FICI, Fractional Inhibitory Concentration Index [1, 5] | MIC (μg/mL) Alone ([1]; P. aeruginosa 1381) [µg/mL] | FICI, Fractional Inhibitory Concentration Index [1, 6] | MIC (μg/mL) Alone ([1]; P. aeruginosa 1384) [µg/mL] | FICI, Fractional Inhibitory Concentration Index [1, 7] | FICI, Fractional Inhibitory Concentration Index [1, 8] | FICI, Fractional Inhibitory Concentration Index [1, 9] | FICI, Fractional Inhibitory Concentration Index [1, 10] | FICI, Fractional Inhibitory Concentration Index [1, 11] | FICI, Fractional Inhibitory Concentration Index ([2]; K. pneumoniae 1346) | FICI, Fractional Inhibitory Concentration Index ([2]; K. pneumoniae 1355) | FICI, Fractional Inhibitory Concentration Index ([2]; K. pneumoniae 2238) | FICI, Fractional Inhibitory Concentration Index ([2]; K. pneumoniae 2541) | FICI, Fractional Inhibitory Concentration Index ([2]; K. pneumoniae 2546) | FICI, Fractional Inhibitory Concentration Index ([2]; K. pneumoniae 2549) | Δ [3, 12] | Δ [3, 13] | further results |
| --- | --- | --- | --- | --- | --- | --- | --- | --- | --- | --- | --- | --- | --- | --- | --- | --- | --- | --- | --- |
| C1C[S][Bi]([S]CC[S][Bi]2[S]CC[S]2)[S]1 [MB-1B-3, bismuth-1,2-ethane dithiol] | 0.71 | 0.96 | 1 | 1.29 | 1 | 0.79 | 0.79 | 1.12 | 1.37 | 0.79 | 1.23 | 2.29 | 1.29 | 1.23 | 1.12 | 0.79 |  |  | MIC (μg/mL) Alone ([1]; P. aeruginosa 103): 1 µg/mL; MIC (μg/mL) Alone ([1]; P. aeruginosa 1474): 1 µg/mL; MIC (μg/mL) Alone ([1]; P. aeruginosa 1479): 1 µg/mL; MIC (μg/mL) Alone ([1]; P. aeruginosa 2566): 0.5 µg/mL; MIC (μg/mL) Alone ([1]; P. aeruginosa 2568): 1 µg/mL; MIC (μg/mL) Alone ([2]; K. pneumoniae 1346): 2 µg/mL; MIC (μg/mL) Alone ([2]; K. pneumoniae 1355): 1 µg/mL; MIC (μg/mL) Alone ([2]; K. pneumoniae 2238): 1 µg/mL; MIC (μg/mL) Alone ([2]; K. pneumoniae 2541): 2 µg/mL; MIC (μg/mL) Alone ([2]; K. pneumoniae 2546): 1 µg/mL; MIC (μg/mL) Alone ([2]; K. pneumoniae 2549): 1 µg/mL |
| OCC(S)CS.[Bi] (centres unmarked) [MB-2B, bismuth-2,3-dimercaptopropanol] | 0.61 | 1.11 | 4 | 1.09 | 4 | 0.94 | 0.98 | 1.11 | 1.23 | 1.11 | 1.19 | 1.19 | 1.64 | 0.64 | 1.16 | 0.83 |  |  | FICI, Fractional Inhibitory Concentration Index ([1]; P. aeruginosa 103, in combination with Aztreonam): 1.08; FICI, Fractional Inhibitory Concentration Index ([1]; P. aeruginosa 1381, in combination with Aztreonam): 0.89; FICI, Fractional Inhibitory Concentration Index ([1]; P. aeruginosa 1384, in combination with Aztreonam): 0.91; FICI, Fractional Inhibitory Concentration Index ([1]; P. aeruginosa 1474, in combination with Aztreonam): 0.54; FICI, Fractional Inhibitory Concentration Index ([1]; P. aeruginosa 1479, in combination with Aztreonam): 0.87; FICI, Fractional Inhibitory Concentration Index ([1]; P. aeruginosa 2566, in combination with Aztreonam): 0.91; FICI, Fractional Inhibitory Concentration Index ([1]; P. aeruginosa 2568, in combination with Aztreonam): 0.87; MIC ([1]; read-out: MIC (μg/mL) Alone, P. aeruginosa 1381): 8 µg/mL; MIC ([1]; read-out: MIC (μg/mL) Alone, P. aeruginosa 1384): 8 µg/mL; MIC ([2]; read-out: MIC (μg/mL) Alone, K. pneumoniae 1346): 4 µg/mL; MIC ([2]; read-out: MIC (μg/mL) Alone, K. pneumoniae 1355): 4 µg/mL; MIC ([2]; read-out: MIC (μg/mL) Alone, K. pneumoniae 2238): 4 µg/mL; MIC ([2]; read-out: MIC (μg/mL) Alone, K. pneumoniae 2541): 8 µg/mL; MIC ([2]; read-out: MIC (μg/mL) Alone, K. pneumoniae 2546): 8 µg/mL; MIC ([2]; read-out: MIC (μg/mL) Alone, K. pneumoniae 2549): 8 µg/mL |
| NC[C@@H]1O[C@H](O[C@H]2[C@@H](O)[C@H](O[C@@H]3[C@@H](O)[C@H](N)C[C@H](N)[C@H]3O[C@H]3O[C@H](CN)[C@@H](O)[C@H](O)[C@H]3N)O[C@@H]2CO)[C@H](N)[C@@H](O)[C@@H]1O [NEO, Neomycin] |  |  |  |  |  |  |  |  |  |  |  |  |  |  |  |  | 1.6 | 2.5 | MIC ([3]; MRSA S2446-3, antibiotic alone): 13.400 µg/mL; MIC + BE ([3]; MRSA S2446-3, with 0.2 μg/ml BisEDT): 8.500 µg/mL; MIC ([3]; S. aureus ATCC 25923, antibiotic alone): 0.500 µg/mL; MIC + BE ([3]; S. aureus ATCC 25923, with 0.2 μg/ml BisEDT): 0.200 µg/mL |
| NC[C@@H]1O[C@H](O[C@H]2[C@@H](O)[C@H](O[C@@H]3[C@@H](O)[C@H](N)C[C@H](N)[C@H]3O[C@H]3O[C@H](CO)[C@@H](O)[C@H](O)[C@H]3N)O[C@@H]2CO)[C@H](N)[C@@H](O)[C@@H]1O [PARO, Paromomycin] |  |  |  |  |  |  |  |  |  |  |  |  |  |  |  |  | 1.8 | 5.7 | Synergy [3, 13]: + (Synergy was also defined conventionally as ≧4-fold decrease in antibiotic concentration); MIC ([3]; Staphylococcus aureus, ATCC25923, S. aureus ATCC 25923, antibiotic alone, read-out: MIC): 1.08 µg/mL; MIC ([3]; Staphylococcus aureus, ATCC25923, S. aureus ATCC 25923, with 0.2 μg/ml BisEDT, read-out: MIC + BE): 0.188 µg/mL; MIC ([3]; Staphylococcus aureus, MRSA, MRSA S2446-3, antibiotic alone, read-out: MIC): 335 µg/mL; MIC ([3]; Staphylococcus aureus, MRSA, MRSA S2446-3, with 0.2 μg/ml BisEDT, read-out: MIC + BE): 183 µg/mL |
